# According to patent US20220000971A1, “METHODS AND COMPOUNDS FOR TARGETING SORTILIN RECEPTORS AND INHIBITING VASCULOGENIC MIMICRY” (TRANSFERT PLUS, S.E.C., priority 2018, published 2022):
# Entries after “also recorded” stand apart in the source; their conditions may differ. Where a SMILES comes first, the peptide text is derived from it. Where no end group is shown, it is not given here. [ ]: non-standard residue; d: D form. The star is where a group is joined. X2 = COc1cccc2c1C(=O)c1c(O)c3c(c(O)c1C2=O)C[C@@](O)(C(=O)COC(=O)CC(C)(C)CC(=O)*)C[C@@H]3O[C@H]1C[C@H](N)[C@H](O)[C@H](C)O1; Nle = CCCC[C@H](N)C(=O)O
# T1: Sortilin receptor (Homo sapiens, UniProt Q99523)
# T1 construct: endogenous in cells; host or cells: ES-2 human ovarian cancer cells
# T1 sequence (Q99523 78-831): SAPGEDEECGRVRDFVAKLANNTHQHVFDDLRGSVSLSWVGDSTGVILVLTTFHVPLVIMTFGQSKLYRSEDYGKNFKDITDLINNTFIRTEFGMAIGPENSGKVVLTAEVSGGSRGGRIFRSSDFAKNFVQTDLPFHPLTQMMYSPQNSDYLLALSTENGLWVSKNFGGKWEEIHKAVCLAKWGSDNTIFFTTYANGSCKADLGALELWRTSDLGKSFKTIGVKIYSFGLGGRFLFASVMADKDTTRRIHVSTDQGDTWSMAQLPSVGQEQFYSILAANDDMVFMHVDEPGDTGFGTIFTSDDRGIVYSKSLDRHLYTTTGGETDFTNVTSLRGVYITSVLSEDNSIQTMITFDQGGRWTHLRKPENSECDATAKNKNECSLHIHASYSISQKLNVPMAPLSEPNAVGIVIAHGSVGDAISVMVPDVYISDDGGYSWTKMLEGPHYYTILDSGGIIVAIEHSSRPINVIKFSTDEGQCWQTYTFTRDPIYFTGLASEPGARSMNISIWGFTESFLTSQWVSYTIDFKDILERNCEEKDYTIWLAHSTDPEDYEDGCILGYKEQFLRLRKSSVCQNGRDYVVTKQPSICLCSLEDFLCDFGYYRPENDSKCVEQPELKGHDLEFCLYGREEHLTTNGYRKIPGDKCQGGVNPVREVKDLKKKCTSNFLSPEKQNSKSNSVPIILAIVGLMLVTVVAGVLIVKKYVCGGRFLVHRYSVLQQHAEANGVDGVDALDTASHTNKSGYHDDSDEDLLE
# T2: Sortilin receptor (human, UniProt Q99523 78-831)
# T2 construct: whole, on cells; also called SORT1
# T2 sequence (looked up): T1 sequence (Q99523 78-831)
# B1: KBP-106: Acetyl-GVRAKAGVRN(Nle)FKSESY (peptide)
# peptide: Ac-GVRAKAGVRN[Nle]FKSESY
# notes: also called Katana peptide; KA-peptide
# Legend:
# [1] = test system: SK-Hep-1 hepatocellular carcinoma cells; conditions: Curcumin 3-30 μM, dose-dependent; cited from earlier work
# [2] = test system: ES-2 ovarian cancer cell line; experiment: Intracellular delivery (uptake) of DoxKA, ES-2; type: cell-based, human; conditions: Sortilin silencing or ligand competition
# Protocol: (§1) As a proof-of-concept, Doxorubicin was conjugated to a Sortilin binding peptide (KA-peptide). In vitro, intracellular delivery of the Doxorubicin-KA-peptide conjugate (DoxKA) KBB-106 represented by formula Acetyl-GVRAK(doxorubicin)AGVRN(Nle)FK(doxorubicin)SESY (Formula (XXVIII)) was assessed in ES-2 and SKOV-3 ovarian cancer cell line models using flow cytometry and fluorescent microscopy. Sortilin gene silencing was performed with specific siRNA. DoxKA efficacy and safety were evaluated in vivo using ES-2 (CD1 nude mice) and SKOV-3 (athymic mice) subcutaneous xenograft models.
# [3] = biological target: T3, P-glycoprotein (P-gp) efflux pump (Homo sapiens, UniProt P08183); experiment: Uptake in MDCK-MDR1 cells overexpressing P-gp; type: in vitro ADME; conditions: with P-gp inhibitor Cyclosporin A
# T3 construct: expressed in transfected cells; host or cells: MDCK-MDR1 cells
# [4] = test system: human ovarian tumor xenografts; experiment: DoxKA efficacy and safety in ES-2 and SKOV-3 subcutaneous xenograft models; type: in vivo, mice
# Protocol: as §1
# [5] = test system: MDA-MB-231 cells; experiment: Real-time cell migration, xCELLigence (MDA-MB-231); type: cell-based
# Protocol: (§2) In vitro vasculogenic mimicry of cancer cells was assessed using a Matrigel tube formation assay. In brief, each well of a 96-well plate was pre-coated with Matrigel. ES-2 ovarian cancer or MDA-MB-231 TNBC cell suspensions were seeded on top of Matrigel. 3D-tubular structures were analyzed and quantified using Wimasis Analysis software. Real-time cell migration was evaluated using the ×CELLigence system. Sortilin gene silencing was performed with specific siRNA. Effects of Doxorubicin-KA-peptide conjugate (DoxKA) KBA-106 represented by formula Acetyl-GVRAK(doxorubicin)AGVRN(Nle)FK(doxorubicin)SESY (Formula (XXVIII)) and Docetaxel-KA-peptide conjugate (DoceKA) represented by formula Acetyl-GVRAK(docetaxel)AGVRN(Nle)FK(docetaxel)SESY (Formula (XXIII)) targeting Sortilin on vasculogenic mimicry and cell migration were determined.
# MDA-MB-231 cells were used as a TNBC cell model for in vitro and in vivo xenograft (CD1 nude mice) assays. Cell migration was assessed using the ×CELLigence real-time system, whereas MTT assay was used for cell proliferation analysis. Apoptosis biomarkers expression was assessed by immunoblotting.
# [6] = test system: ES-2 ovarian cancer cells; experiment: In vitro vasculogenic mimicry, Matrigel tube formation assay (ES-2); type: cell-based, human; conditions: for inhibition of 3D-tubular structures (vasculogenic mimicry): ES-2 seeded on Matrigel, increasing concentrations; for effect on vasculogenic mimicry inhibition caused by KBB106: competitor added to KBB106
# [7] = test system: SKOV-3 ovarian cancer cell line; experiment: Intracellular delivery (uptake) of DoxKA, SKOV-3; type: cell-based; conditions: Sortilin silencing or ligand competition
# Protocol: as §1
# [8] = test system: ES-2 ovarian cancer cells; experiment: Real-time cell migration, xCELLigence (ES-2); type: cell-based, human
# Protocol: as §2
# [9] = biological target: T1, Sortilin receptor; experiment: Cell surface binding assay with anti-Sortilin-Alexa488; conditions: antibody 1 μg/ml, 30 minutes; ES-2 cells; competitor present
# Protocol: Labeling of anti-Sortilin antibody was performed with the Alexa Fluor 488 protein labeling kit from Invitrogen according to manufacturer's instructions.
# [10] = test system: MDA-MB-231 cells; experiment: Cell death / apoptosis (Annexin V-FITC/PI); type: cell-based; conditions: SORT1 ligand competition
# Protocol: MDA-MB-231 cells treated for 5 hours with control (vehicle) or with increasing concentrations of Docetaxel or DoceKA. Cells were then harvested and the rate of apoptosis was determined following staining with Annexin V-FITC and propidium iodide (PI). Cells were analyzed by flow cytometry.
# [11] = biological target: T2, Sortilin receptor; experiment: inferred from the vasculogenic mimicry assay of ES-2 cells, excess KBP106 against KBB106
# T3 sequence (P08183 whole entry): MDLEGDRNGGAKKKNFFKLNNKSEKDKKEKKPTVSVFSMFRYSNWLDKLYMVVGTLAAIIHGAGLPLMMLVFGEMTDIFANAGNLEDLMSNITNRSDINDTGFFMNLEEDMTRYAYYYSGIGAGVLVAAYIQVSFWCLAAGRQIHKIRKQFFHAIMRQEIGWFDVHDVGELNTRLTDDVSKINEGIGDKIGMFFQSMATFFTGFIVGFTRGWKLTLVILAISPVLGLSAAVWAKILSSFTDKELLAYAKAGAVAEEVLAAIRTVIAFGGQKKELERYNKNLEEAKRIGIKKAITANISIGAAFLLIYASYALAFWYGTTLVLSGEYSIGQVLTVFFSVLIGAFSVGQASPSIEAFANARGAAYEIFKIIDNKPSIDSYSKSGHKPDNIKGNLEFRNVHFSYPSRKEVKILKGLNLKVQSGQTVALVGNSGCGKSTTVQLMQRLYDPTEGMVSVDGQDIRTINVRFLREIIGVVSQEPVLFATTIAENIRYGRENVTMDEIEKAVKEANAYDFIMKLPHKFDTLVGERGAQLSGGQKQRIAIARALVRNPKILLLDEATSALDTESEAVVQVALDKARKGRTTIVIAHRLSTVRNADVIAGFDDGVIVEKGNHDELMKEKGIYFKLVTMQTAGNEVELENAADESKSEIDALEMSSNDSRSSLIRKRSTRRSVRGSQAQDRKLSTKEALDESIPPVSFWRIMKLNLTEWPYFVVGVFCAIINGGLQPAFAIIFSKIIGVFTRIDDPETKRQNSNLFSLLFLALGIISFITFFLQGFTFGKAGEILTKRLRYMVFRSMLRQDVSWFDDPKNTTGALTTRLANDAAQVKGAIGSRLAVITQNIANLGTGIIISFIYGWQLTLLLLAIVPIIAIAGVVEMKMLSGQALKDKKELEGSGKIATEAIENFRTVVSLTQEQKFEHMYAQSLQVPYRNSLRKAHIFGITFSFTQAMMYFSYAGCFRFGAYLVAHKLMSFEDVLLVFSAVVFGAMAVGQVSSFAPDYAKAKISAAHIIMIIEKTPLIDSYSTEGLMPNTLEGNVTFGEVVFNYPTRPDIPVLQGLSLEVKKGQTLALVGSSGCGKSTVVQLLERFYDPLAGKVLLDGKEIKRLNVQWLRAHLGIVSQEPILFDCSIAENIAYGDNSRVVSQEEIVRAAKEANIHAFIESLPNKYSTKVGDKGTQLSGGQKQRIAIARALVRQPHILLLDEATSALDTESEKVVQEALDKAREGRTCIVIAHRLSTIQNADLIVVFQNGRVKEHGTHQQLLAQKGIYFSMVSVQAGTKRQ
molecule,measurement,setting,value
"COc1cc(/C=C/C(=O)CC(=O)/C=C/c2ccc(O)c(OC)c2)ccc1O [Curcumin, diferuloylmethane]",inhibition of tube formation,[1],18-92%
"CCCC[C@H](NC(=O)[C@H](CC(N)=O)NC(=O)[C@H](CCCNC(=N)N)NC(=O)[C@@H](NC(=O)CNC(=O)[C@H](C)NC(=O)[C@H](CCCCNC(=O)CC(C)(C)CC(=O)OCC(=O)[C@]1(O)Cc2c(O)c3c(c(O)c2[C@@H](O[C@H]2C[C@H](N)[C@H](O)[C@H](C)O2)C1)C(=O)c1c(OC)cccc1C3=O)NC(=O)[C@H](C)NC(=O)[C@H](CCCNC(=N)N)NC(=O)[C@@H](NC(=O)CNC(C)=O)C(C)C)C(C)C)C(=O)N[C@@H](Cc1ccccc1)C(=O)N[C@@H](CCCCNC(=O)CC(C)(C)CC(=O)OCC(=O)[C@]1(O)Cc2c(O)c3c(c(O)c2[C@@H](O[C@H]2C[C@H](N)[C@H](O)[C@H](C)O2)C1)C(=O)c1c(OC)cccc1C3=O)C(=O)N[C@@H](CO)C(=O)N[C@@H](CCC(=O)O)C(=O)N[C@@H](CO)C(=O)N[C@@H](Cc1ccc(O)cc1)C(=O)O [DoxKA, Acetyl-GVRAK(doxorubicin)AGVRN(Nle)FK(doxorubicin)SESY] (Ac-GVRAK(X2)AGVRN[Nle]FK(X2)SESY-OH)",uptake,[2],reduced when Sortilin expression was specifically silenced or upon competition with the Sortilin ligands Neurotensin and Progranulin
same,uptake in P-gp overexpressing cells,[3],unaffected by the P-gp inhibitor Cyclosporin A
same,inhibition of tumor xenografts growth compared to unconjugated Doxorubicin,[4]; equivalent dose,more potent inhibition
same,tolerability compared to unconjugated Doxorubicin,[4]; equivalent dose,better tolerated (absence of leukopenia and neutropenia)
same,accumulation in healthy tissues compared to Doxorubicin,"[4]; in vivo, heart and ovary",decreased accumulation in healthy tissues such as heart and ovary
same,cell migration,[5],inhibited
same,concentration at which total number of loops and total tube length are inhibited,[6]; ES-2 on Matrigel,inhibited at low nM concentrations
same,vasculogenic mimicry inhibition compared to unconjugated drug,"[6]; ES-2 on Matrigel, 12 hrs, equivalent concentration of free drug (Docetaxel 600 pM)",stronger inhibition of vasculogenic mimicry than unconjugated free drugs
same,inhibition of 3D-tubular structures (vasculogenic mimicry),[6],strongly inhibited; also recorded: inhibited
same,inhibition of 3D-tubular structures (vasculogenic mimicry),[6]; listed as KBB106,vascukogenic mimicry inhibition
same,IC50 values for vasculogenic mimicry inhibition,"[6]; Example 2, ovarian cancer and TNBC cells",low nM to pM
same,uptake,[7],reduced when Sortilin expression was specifically silenced or upon competition with the Sortilin ligands Neurotensin and Progranulin
same,cell migration,[8],inhibited
Acetyl-GVRAKAGVRN(Nle)FKSESY (Ac-GVRAKAGVRN[Nle]FKSESY) [KBP106],effect on binding of anti-Sortilin-Alexa488 at the cell surface,[9],strongly reduced the binding
same,effect on vasculogenic mimicry inhibition caused by KBB106,[6]; ES-2,prevents vascukogenic mimicry inhibition by KBB106
same,effect of peptide alone on vasculogenic mimicry,"[6]; up to 50 μM, ES-2, 24 hours",no significant effect
Acetyl-GVRAKAGVRN(Nle)FKSESYC(aldoxorubicin) [AldoxKA],inhibition of 3D-tubular structures (vasculogenic mimicry),[6],inhibited
Acetyl-YKSLRRKAPRWDAPLRDPALRQLL (Ac-YKSLRRKAPRWDAPLRDPALRQLL) [KBP201],effect on binding of anti-Sortilin-Alexa488 at the cell surface,[9],strongly reduced the binding
progranulin: Sortilin ligand [reference compound],effect on binding of anti-Sortilin-Alexa488 at the cell surface,[9],inhibited
same,effect on apoptotic and anti-migratory effects of DoceKA,[10],reversed
same,effect of Sortilin ligand alone on vasculogenic mimicry,"[6]; ES-2, 12 hours",do not effect vasculogenic mimicry
same,effect on vasculogenic mimicry inhibition caused by KBB106,[6]; ES-2,reverses vasculogenic mimicry inhibition
B1,binding result,[11],binds
